Source: PubChem BioAssay AID212 (DTP/NCI, 2004)
Several values for one entry are separate records, joined by “and”; a condition that tells them apart may be missing. Equal values may be shown once. Results filed as inconclusive are left out.

Test system: BDF1 mice, colon carcinoma 38 sc, T/C %
Experiment: NCI In Vivo Anticancer Drug Screen. Data for tumor model Colon Carcinoma 38 (subcutaneous) in B6D2F1 (BDF1) mice
How it was run: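 Ratio of survival or tumor size, compound-treated animals relative to vehicle controls, in tumor-bearing mice.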

[1] = endpoint: median tumor weight (est.), dose: 12.5 mg/kg/injection, schedule: Q07DX002 (ip), vehicle: Klucel (hydroxypropylcellulose) (HPC), higher = larger tumour
[2] = endpoint: median tumor weight (est.), dose: 50.0 mg/kg/injection, schedule: Q07DX002 (ip), vehicle: Klucel (hydroxypropylcellulose) (HPC), higher = larger tumour
[3] = endpoint: median tumor weight (est.), dose: 25.0 mg/kg/injection, schedule: Q07DX002 (ip), vehicle: saline with Tween-80, higher = larger tumour
[4] = endpoint: median tumor weight (est.), dose: 50.0 mg/kg/injection, schedule: Q07DX002 (ip), vehicle: saline with Tween-80, higher = larger tumour
[5] = endpoint: median tumor weight (est.), dose: 100.0 mg/kg/injection, schedule: Q07DX002 (ip), vehicle: saline with Tween-80, higher = larger tumour
[6] = endpoint: median tumor weight (est.), dose: 200.0 mg/kg/injection, schedule: Q07DX002 (ip), vehicle: saline with Tween-80, higher = larger tumour
[7] = endpoint: median tumor weight (est.), dose: 400.0 mg/kg/injection, schedule: Q07DX002 (ip), vehicle: saline with Tween-80, higher = larger tumour

**Q.** `CN(C(=S)S(=O)(=O)C12CC3CC(CC(C3)C1)C2)c1ccccc1` was tested. Which T/C (endpoint: median tumor weight (est.), dose: 3.12 mg/kg/injection, schedule: Q07DX002 (ip), vehicle: Klucel (hydroxypropylcellulose) (HPC), higher = larger tumour) did it give?
**A.** The T/C was 104 % of control.

**Q.** What about the T/C (endpoint: median tumor weight (est.), dose: 6.25 mg/kg/injection, schedule: Q07DX002 (ip), vehicle: Klucel (hydroxypropylcellulose) (HPC), higher = larger tumour) of the same molecule?
**A.** The T/C was 92 % of control and 102 % of control.

**Q.** What about the T/C [1] of the same molecule?
**A.** Its T/C is 116 % of control and 93 % of control.

**Q.** And the T/C [2]?
**A.** The T/C was 101 % of control and 106 % of control.

**Q.** And the T/C (endpoint: median tumor weight (est.), dose: 100.0 mg/kg/injection, schedule: Q07DX002 (ip), vehicle: Klucel (hydroxypropylcellulose) (HPC), higher = larger tumour)?
**A.** The T/C was 115 % of control.

**Q.** What about the T/C (endpoint: median tumor weight (est.), dose: 200.0 mg/kg/injection, schedule: Q07DX002 (ip), vehicle: Klucel (hydroxypropylcellulose) (HPC), higher = larger tumour) of the same molecule?
**A.** The T/C was 105 % of control.

**Q.** Which results are given for `CC1CN=C(c2ccc(NC(=O)c3ccc(C(=O)Nc4ccc(C5=NCC(C)N5)cc4)cc3)cc2)N1` (configuration not stated)?
**A.** T/C (endpoint: median tumor weight (est.), dose: 12.5 mg/kg/injection, schedule: Q07DX003 (ip), vehicle: Klucel (hydroxypropylcellulose) (HPC), higher = larger tumour): 78 % of control and 79 % of control; T/C (endpoint: median tumor weight (est.), dose: 25.0 mg/kg/injection, schedule: Q07DX003 (ip), vehicle: Klucel (hydroxypropylcellulose) (HPC), higher = larger tumour): 115 % of control and 102 % of control; T/C (endpoint: median tumor weight (est.), dose: 200.0 mg/kg/injection, schedule: Q07DX003 (ip), vehicle: Klucel (hydroxypropylcellulose) (HPC), higher = larger tumour): 86 % of control; T/C (endpoint: median tumor weight (est.), dose: 400.0 mg/kg/injection, schedule: Q07DX003 (ip), vehicle: Klucel (hydroxypropylcellulose) (HPC), higher = larger tumour): 63 % of control

**Q.** With `OC1(CSc2ccccc2)CCCCC1` as the molecule, how does the T/C [3] read?
**A.** Its T/C is 93 % of control.

**Q.** What about the T/C [4] of the same molecule?
**A.** The T/C was 47 % of control.

**Q.** What about the T/C [5] of the same molecule?
**A.** The T/C was 97 % of control.

**Q.** What about the T/C [6] of the same molecule?
**A.** Its T/C is 87 % of control.

**Q.** And the T/C [7]?
**A.** The T/C was 77 % of control.

**Q.** What does the source list for `Nc1ccc(S(N)(=O)=O)cc1`?
**A.** T/C [5]: 103 % of control; T/C (endpoint: median tumor weight (est.), dose: 112.0 mg/kg/injection, schedule: Q07DX002 (ip), vehicle: saline with Tween-80, higher = larger tumour): 82 % of control and 100 % of control; T/C [7]: 122 % of control; T/C (endpoint: median tumor weight (est.), dose: 800.0 mg/kg/injection, schedule: Q07DX002 (ip), vehicle: saline with Tween-80, higher = larger tumour): 76 % of control; T/C (endpoint: median tumor weight (est.), dose: 1600.0 mg/kg/injection, schedule: Q07DX002 (ip), vehicle: saline with Tween-80, higher = larger tumour): 101 % of control; T/C (endpoint: median tumor weight (est.), dose: 1800.0 mg/kg/injection, schedule: Q07DX002 (ip), vehicle: saline with Tween-80, higher = larger tumour): 80 % of control and 84 % of control

**Q.** How did the T/C (endpoint: median tumor weight (est.), dose: 3.12 mg/kg/injection, schedule: Q07DX002 (ip), vehicle: saline with Tween-80, higher = larger tumour) turn out when `O=c1cc(CCl)[nH]nc1CCl` was run?
**A.** Its T/C is 119 % of control.

**Q.** And the T/C (endpoint: median tumor weight (est.), dose: 6.25 mg/kg/injection, schedule: Q07DX002 (ip), vehicle: saline with Tween-80, higher = larger tumour)?
**A.** Its T/C is 91 % of control.

**Q.** And the T/C (endpoint: median tumor weight (est.), dose: 12.5 mg/kg/injection, schedule: Q07DX002 (ip), vehicle: saline with Tween-80, higher = larger tumour)?
**A.** The T/C was 93 % of control.

**Q.** What does the source list for `COC(=Nc1ccccc1)SSC(C)C`?
**A.** T/C [3]: 99 % of control; T/C [4]: 84 % of control; T/C [5]: 88 % of control; T/C [6]: 100 % of control; T/C [7]: 96 % of control

**Q.** Which results are given for `O=c1oc2c(O)c(O)cc3c(=O)oc4c(O)c(O)cc1c4c23`?
**A.** T/C [1]: 195 % of control; T/C (endpoint: median tumor weight (est.), dose: 25.0 mg/kg/injection, schedule: Q07DX002 (ip), vehicle: Klucel (hydroxypropylcellulose) (HPC), higher = larger tumour): 200 % of control; T/C [2]: 181 % of control; T/C (endpoint: median tumor weight (est.), dose: 400.0 mg/kg/injection, schedule: Q07DX002 (ip), vehicle: Klucel (hydroxypropylcellulose) (HPC), higher = larger tumour): 155 % of control

**Q.** How did the T/C (endpoint: median tumor weight (est.), dose: 2.0 mg/kg/injection, schedule: Q07DX003 (ip), vehicle: saline with Tween-80, higher = larger tumour) turn out when `CC1=CC2OC3C(OC(=O)CCCCl)C(OC(=O)CCCCl)C(C)(C2(CO)CC1)C31CO1` (configuration not stated) was run?
**A.** The T/C was 103 % of control.

**Q.** What about the T/C (endpoint: median tumor weight (est.), dose: 8.0 mg/kg/injection, schedule: Q07DX003 (ip), vehicle: saline with Tween-80, higher = larger tumour) of the same molecule?
**A.** Its T/C is 76 % of control.

**Q.** What about the T/C (endpoint: median tumor weight (est.), dose: 16.0 mg/kg/injection, schedule: Q07DX003 (ip), vehicle: saline with Tween-80, higher = larger tumour) of the same molecule?
**A.** Its T/C is 83 % of control.

**Q.** Which results are given for `O=C1c2c(O)ccc(O)c2C(=O)c2c(NCCNCCO)ccc(NCCNCCO)c21`?
**A.** T/C (endpoint: median survival time, dose: 1.0 mg/kg/injection, schedule: Q04DX004 (ip), vehicle: acid diluted with saline, higher = longer survival): 96 % of control; T/C (endpoint: median survival time, dose: 2.3 mg/kg/injection, schedule: Q07DX004 (iv), vehicle: water, higher = longer survival): 153 % of control; T/C (endpoint: median survival time, dose: 3.7 mg/kg/injection, schedule: Q07DX004 (iv), vehicle: water, higher = longer survival): 176 % of control; T/C (endpoint: median survival time, dose: 4.0 mg/kg/injection, schedule: Q04DX004 (ip), vehicle: acid diluted with saline, higher = longer survival): 117 % of control; T/C (endpoint: median survival time, dose: 6.0 mg/kg/injection, schedule: Q07DX004 (iv), vehicle: water, higher = longer survival): 199 % of control; T/C (endpoint: median tumor weight (est.), dose: 0.5 mg/kg/injection, schedule: Q07DX002 (ip), vehicle: water, higher = larger tumour): 92 % of control and 100 % of control and 102 % of control; T/C (endpoint: median tumor weight (est.), dose: 1.0 mg/kg/injection, schedule: Q07DX002 (ip), vehicle: acid diluted with saline, higher = larger tumour): 76 % of control; T/C (endpoint: median tumor weight (est.), dose: 2.0 mg/kg/injection, schedule: Q07DX002 (ip), vehicle: acid diluted with saline, higher = larger tumour): 49 % of control; T/C (endpoint: median tumor weight (est.), dose: 3.0 mg/kg/injection, schedule: Q07DX003 (ip), vehicle: saline with Tween-80, higher = larger tumour): 72 % of control; T/C (endpoint: median tumor weight (est.), dose: 3.0 mg/kg/injection, schedule: Q07DX003 (iv), vehicle: acid diluted with saline, higher = larger tumour): 11 % of control; T/C (endpoint: median tumor weight (est.), dose: 4.0 mg/kg/injection, schedule: Q07DX002 (ip), vehicle: acid diluted with saline, higher = larger tumour): 55 % of control
